# From patent US20230129326A1, “METHODS TO PREVENT SARS-COV-2 INFECTION AND TREAT COVID-19” (priority 2020, published 2023)
# Entries after “also recorded” stand apart in the source; their conditions may differ. Where two headings read alike, the source gives them in different places.
# Legend:
# ACE2 = ACE2 (Homo sapiens, UniProt Q9BYF1); format: biochemical
# [1] = molecular target: ACE2/SARS spike protein interaction (Homo sapiens, UniProt Q9BYF1); format: cell-based, SARS-CoV
# SARS-CoV-2 = experiment: N protein copies by qPCR in VeroE6 cells infected with SARS-CoV-2; format: cell-based; settings: VeroE6, MOI 0.01, 48 h; drug by itself
# [2] = design: species or system mice; settings: mouse, in vivo
# SARS-CoV-2 Strain WA-1 = system: SARS-CoV-2 Strain WA-1; design: species or system hACE2-transgenic mice; settings: mouse, in vivo
# [3] = system: SARS-CoV-2 isolate USA-UF-1/2020; experiment: microbe, parasite or virus in culture; format: cell-based; settings: for EC50: Severe acute respiratory syndrome coronavirus 2, Vero C1008, read-out: EC50, 50% inhibition of SARS-CoV-2 isolate USA-UF-1/2020 infection of Vero E6 cells
# SARS-CoV-2 infection = experiment: Drug usage versus SARS-CoV-2 infection in UCSF Health population; format: in vivo; settings: for Odds ratio: drug usage vs SARS-CoV-2 infection; for correlation of usage with protection from SARS-CoV-2 infection: statistically significant
# [4] = system: SARS-CoV-2 virus (isolate USA-WA1/2020); experiment: microbe, parasite or virus in culture; format: cell-based
# [5] = Cytotoxicity (50% cytotoxic concentration); format: cell-based
# [6] = system: SARS-CoV-2 isolate USA-UF-1/2020; format: cell-based
# Sequence of ACE2 (Q9BYF1 18-805): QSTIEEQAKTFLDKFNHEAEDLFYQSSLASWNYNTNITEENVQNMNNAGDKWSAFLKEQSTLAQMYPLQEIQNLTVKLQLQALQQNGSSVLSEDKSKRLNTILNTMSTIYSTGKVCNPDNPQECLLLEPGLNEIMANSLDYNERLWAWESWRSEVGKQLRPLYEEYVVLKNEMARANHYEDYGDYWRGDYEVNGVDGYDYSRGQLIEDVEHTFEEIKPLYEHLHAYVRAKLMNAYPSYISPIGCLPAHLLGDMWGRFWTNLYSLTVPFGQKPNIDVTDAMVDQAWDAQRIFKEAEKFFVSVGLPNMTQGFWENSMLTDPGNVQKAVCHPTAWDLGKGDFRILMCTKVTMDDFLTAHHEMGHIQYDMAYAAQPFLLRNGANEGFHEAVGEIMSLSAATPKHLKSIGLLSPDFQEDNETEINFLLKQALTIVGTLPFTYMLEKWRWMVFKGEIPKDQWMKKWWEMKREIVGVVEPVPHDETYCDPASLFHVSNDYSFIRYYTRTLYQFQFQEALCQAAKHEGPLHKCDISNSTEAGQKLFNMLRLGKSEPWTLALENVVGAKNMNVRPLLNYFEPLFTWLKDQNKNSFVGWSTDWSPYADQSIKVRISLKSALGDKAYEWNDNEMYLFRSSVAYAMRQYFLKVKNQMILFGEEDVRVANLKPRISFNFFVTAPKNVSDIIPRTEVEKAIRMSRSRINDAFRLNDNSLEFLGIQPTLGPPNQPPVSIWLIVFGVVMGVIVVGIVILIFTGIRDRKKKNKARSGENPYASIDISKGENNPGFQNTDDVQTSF
# Sequence of ACE2/SARS spike protein interaction (Q9BYF1 18-805 limits assumed): as the sequence (Q9BYF1 18-805) above
molecule,measurement,setting,value
"NCCNCCNCCN [Triethylenetetramine, triethylenetetramine]",ACE2 binding activity (velocity of ACE2),ACE2,Inhibits velocity of ACE2
same,ACE2/SARS spike protein interaction,[1],Inhibits ACE2/SARS spike protein interaction
CC(CN1c2ccccc2Sc2ccccc21)N(C)C (centres unmarked) [Promethazine],reduction of viral replication in vitro,SARS-CoV-2,~100 ×
LQSYGFQPTNGV peptide,immune response in mice,[2],induced a strong immune response
same,lungs at gross necropsy,SARS-CoV-2 Strain WA-1,some damage/abscesses in the lungs
same,survival at 5 dpi,SARS-CoV-2 Strain WA-1,survived 5 dpi
same,viral load in the lungs (plaque forming units),SARS-CoV-2 Strain WA-1,low plaque forming units per liter in the lungs
CN1CCCC(n2nc(Cc3ccc(Cl)cc3)c3ccccc3c2=O)CC1 (centres unmarked) [azelastine],direct antiviral activity against SARS-CoV-2 isolates in vitro,[3],exhibited direct antiviral activity
same,EC50,[3],2.24 µg/mL
same,Odds ratio,SARS-CoV-2 infection,0.16
same,correlation of usage with protection from SARS-CoV-2 infection,SARS-CoV-2 infection,correlated with protection from SARS-CoV-2 infection
"O=c1c(O)c(-c2cc(O)c(O)c(O)c2)oc2cc(O)cc(O)c12 [Myricetin, myricetin]",in vitro activity against SARS-CoV-2,[4],observed to have in vitro activity
"CCN(CC)CCCN(c1ccccc1)C1Cc2ccccc2C1 [Aprindine, aprindine]",ACE2 binding activity (velocity of ACE2),ACE2,Inhibited velocity of ACE2
CC(CCc1ccccc1)NCC(O)c1ccc(O)c(C(N)=O)c1 (centres unmarked) [labetalol],ACE2 binding activity (velocity of ACE2),ACE2,Enhanced velocity of ACE2
CN(C)CCOC(c1ccccc1)c1ccccc1 [diphenhydramine],direct antiviral activity against SARS-CoV-2 isolates in vitro,[3],exhibited direct antiviral activity
"NCCNCCN1CC1 [N-(2-aminoethyl)-1 aziridine-ethanamine, N-(2-aminoethyl)-1-aziridine-ethanamine]",ACE2 binding activity (velocity of ACE2),ACE2,Inhibits velocity of ACE2
same,ACE2/SARS spike protein interaction,[1],inhibited ACE2 interactions with SARS-CoV spike protein; also recorded: Inhibits ACE2/SARS spike protein interaction
same,SARS S-glycoprotein-mediated cell fusion,[1],effective in blocking the SARS coronavirus spike protein-mediated cell fusion; also recorded: inhibits SARS S-glycoprotein-mediated cell fusion; also recorded: inhibition of SARS S-glycoprotein-mediated cell fusion
CN(C)CCC(c1ccc(Br)cc1)c1ccccn1 (centres unmarked) [Brompheniramine],Odds ratio,SARS-CoV-2 infection,0.76
CN(C)CCC(c1ccc(Cl)cc1)c1ccccn1 (centres unmarked) [chlorpheniramine],Odds ratio,SARS-CoV-2 infection,0.23
same,correlation of usage with protection from SARS-CoV-2 infection,SARS-CoV-2 infection,correlated with protection from SARS-CoV-2 infection
N=C(N)c1ccc(/N=N/Nc2ccc(C(=N)N)cc2)cc1 [diminazene],ACE2 binding activity (velocity of ACE2),ACE2,Enhanced velocity of ACE2
OCCOCCN1CCN(C(c2ccccc2)c2ccc(Cl)cc2)CC1 (centres unmarked) [hydroxyzine],direct antiviral activity against SARS-CoV-2 isolates in vitro,[3],exhibited direct antiviral activity
same,EC50,[3],15.3 µg/mL
same,50% cytotoxic concentration,[5],approximately 50 μg/ml
same,ACE2 binding activity (velocity of ACE2),ACE2,inhibited ACE2 activity; also recorded: Inhibited velocity of ACE2
same,viral burden,[4],lowered viral burden to below the level of detection
same,EC50,"[4]; Severe acute respiratory syndrome coronavirus 2, Vero C1008, 48 h, read-out: EC50, viral burden by plaque assay",11.3 µg/mL
same,EC50,"[4]; Severe acute respiratory syndrome coronavirus 2, Vero C1008, read-out: anti-SARS-CoV-2 activity EC50",11.3 µg/mL
same,Odds ratio,SARS-CoV-2 infection,0.76
same,level of SARS-CoV-2 mRNA expressed in the cells,[6],significantly lowered
"CN(C)CC/C=C1/c2ccccc2Sc2ccc(Cl)cc21.Cl [Minithixen, Chlorprothixene hydrochloride]",ACE2 binding activity (velocity of ACE2),ACE2; hydrochloride,Inhibited velocity of ACE2
